According to ChEMBL document CHEMBL1275474, “In vitro activity of tigecycline against multidrug-resistant Acinetobacter baumannii and selection of tigecycline-amikacin synergy” (2008):
In brackets after ≈: the same amount, converted by molar mass. Activity calls are given as the source filed them. No cut-off for these calls is given here.

Experiments:
[1] = system: Acinetobacter baumannii; experiment: Antimicrobial activity against Acinetobacter baumannii by microdilution method; format: functional
[2] = system: Acinetobacter baumannii; experiment: Antimicrobial activity against Acinetobacter baumannii assessed as susceptible isolates by microdilution method; format: functional
[3] = system: Acinetobacter baumannii; experiment: Antimicrobial activity against Acinetobacter baumannii isolate 1826 by microdilution method; format: functional
[4] = system: Acinetobacter baumannii; experiment: Bactericidal activity against Acinetobacter baumannii isolate 853 at 0.5 ug/ml at 6 hrs by time kill analysis; format: functional, organism-based
[5] = system: Acinetobacter baumannii; experiment: Antimicrobial activity against Acinetobacter baumannii isolate 1198 by microdilution method; format: functional
[6] = system: Acinetobacter baumannii; experiment: Antimicrobial activity against Acinetobacter baumannii isolate 853 by microdilution method; format: functional
[7] = system: Acinetobacter baumannii; experiment: Antimicrobial activity against Acinetobacter baumannii by microdilution method in presence of beta-lactamase inhibitor Tazobactam; format: functional
[8] = system: Acinetobacter baumannii; experiment: Antimicrobial activity against Acinetobacter baumannii by microdilution method in presence of beta-lactamase inhibitor Sulbactam; format: functional
[9] = system: Acinetobacter baumannii; experiment: Bactericidal activity against Acinetobacter baumannii isolate 1198 at 16 ug/ml after 24 hrs by time kill analysis; format: functional, organism-based
[10] = system: Acinetobacter baumannii; experiment: Bactericidal activity against Acinetobacter baumannii isolate 1198 at 2 ug/ml after 24 hrs by time kill analysis; format: functional, organism-based
[11] = system: Acinetobacter baumannii; experiment: Bactericidal activity against Acinetobacter baumannii isolate 1198 at 1 ug/ml after 24 hrs by time kill analysis; format: functional, organism-based
[12] = system: Acinetobacter baumannii; experiment: Bactericidal activity against Acinetobacter baumannii isolate 1826 at 8 ug/ml up to 4 hrs by time kill analysis; format: functional, organism-based
[13] = system: Acinetobacter baumannii; experiment: Bactericidal activity against Acinetobacter baumannii isolate 1826 at 2 ug/ml up to 4 hrs by time kill analysis; format: functional, organism-based
[14] = system: Acinetobacter baumannii; experiment: Bactericidal activity against Acinetobacter baumannii isolate 853 at 0.06 ug/ml at 6 hrs by time kill analysis; format: functional, organism-based
[15] = system: Acinetobacter baumannii; experiment: Bactericidal activity against Acinetobacter baumannii isolate 1826 at 2 ug/ml after 4 hrs by time kill analysis; format: functional, organism-based
[16] = system: Acinetobacter baumannii; experiment: Bactericidal activity against Acinetobacter baumannii isolate 1826 at 8 ug/ml after 4 hrs by time kill analysis; format: functional, organism-based

Compound	MIC50 [1]	MIC90 [1]	Activity [2]	MIC [3]	MIC [5]	MIC [6]	also measured
C[C@@H](O)[C@H]1C(=O)N2C(C(=O)O)=C(SCCNC=N)C[C@H]12 [IMIPENEM ANHYDROUS]	1 mg/L (≈ 3.34 µM)	16 mg/L (≈ 53.4 µM)	86%				
CN(C)c1ccc(O)c2c1C[C@H]1C[C@H]3[C@H](N(C)C)C(O)=C(C(N)=O)C(=O)[C@@]3(O)C(O)=C1C2=O [MINOCYCLINE]	2 mg/L (≈ 4.37 µM)	8 mg/L (≈ 17.5 µM)	78%				
POLYMYXIN B	1 mg/L	2 mg/L	99%	2 mg/L	1 mg/L	1 mg/L	Activity [4]: inactive
CCN1CCN(C(=O)N[C@@H](C(=O)N[C@@H]2C(=O)N3[C@@H]2SC(C)(C)[C@@H]3C(=O)O)c2ccccc2)C(=O)C1=O [PIPERACILLIN]			9%				MIC50 [7]: > 128 mg/L; MIC90 [7]: > 128 mg/L
CC1(C)S[C@@H]2[C@H](NC(=O)[C@H](N)c3ccccc3)C(=O)N2[C@H]1C(=O)O [AMPICILLIN]			31%				MIC50 [8]: 16 mg/L; MIC90 [8]: 128 mg/L
C[C@H]1COc2c(N3CCN(C)CC3)c(F)cc3c(=O)c(C(=O)O)cn1c23.C[C@H]1COc2c(N3CCN(C)CC3)c(F)cc3c(=O)c(C(=O)O)cn1c23.O [LEVOFLOXACIN]	8 mg/L	16 mg/L	35%				
NCC[C@H](O)C(=O)N[C@@H]1C[C@H](N)[C@@H](O[C@H]2O[C@H](CN)[C@@H](O)[C@H](O)[C@H]2O)[C@H](O)[C@H]1O[C@H]1O[C@H](CO)[C@@H](O)[C@H](N)[C@H]1O [AMIKACIN]	8 mg/L (≈ 13.7 µM)	> 128 mg/L	53%	2 mg/L (≈ 3.42 µM)	> 128 mg/L	≤ 0.5 mg/L	Activity [9]: inactive
GENTAMICIN	> 32 mg/L	> 32 mg/L	16%				
CN(C)c1cc(NC(=O)CNC(C)(C)C)c(O)c2c1C[C@H]1C[C@H]3[C@H](N(C)C)C(O)=C(C(N)=O)C(=O)[C@@]3(O)C(O)=C1C2=O [TIGECYCLINE]				64 mg/L (≈ 109 µM)	4 mg/L (≈ 6.83 µM)	0.12 mg/L (≈ 0.205 µM)	Activity [10]: inactive; Activity [11]: inactive; MIC [1]: 0.06 mg/L (≈ 0.102 µM); Activity [12]: Active; Activity [13]: Active; Activity [14]: inactive; Activity [15]: inactive; Activity [16]: inactive
CC(C)(O/N=C(\C(=O)N[C@@H]1C(=O)N2C(C(=O)[O-])=C(C[n+]3ccccc3)CS[C@H]12)c1csc(N)n1)C(=O)O [CEFTAZIDIME]	64 mg/L (≈ 117 µM)	> 64 mg/L	17%				
